The values that follow come from patent US20130338106A1, “COMPOUNDS INHIBITING LEUCINE-RICH REPEAT KINASE ENZYME ACTIVITY” (priority 2011, published 2013).

SMILES strings stand for the structures.

T1 sequence (Q5S007 whole entry G2019S): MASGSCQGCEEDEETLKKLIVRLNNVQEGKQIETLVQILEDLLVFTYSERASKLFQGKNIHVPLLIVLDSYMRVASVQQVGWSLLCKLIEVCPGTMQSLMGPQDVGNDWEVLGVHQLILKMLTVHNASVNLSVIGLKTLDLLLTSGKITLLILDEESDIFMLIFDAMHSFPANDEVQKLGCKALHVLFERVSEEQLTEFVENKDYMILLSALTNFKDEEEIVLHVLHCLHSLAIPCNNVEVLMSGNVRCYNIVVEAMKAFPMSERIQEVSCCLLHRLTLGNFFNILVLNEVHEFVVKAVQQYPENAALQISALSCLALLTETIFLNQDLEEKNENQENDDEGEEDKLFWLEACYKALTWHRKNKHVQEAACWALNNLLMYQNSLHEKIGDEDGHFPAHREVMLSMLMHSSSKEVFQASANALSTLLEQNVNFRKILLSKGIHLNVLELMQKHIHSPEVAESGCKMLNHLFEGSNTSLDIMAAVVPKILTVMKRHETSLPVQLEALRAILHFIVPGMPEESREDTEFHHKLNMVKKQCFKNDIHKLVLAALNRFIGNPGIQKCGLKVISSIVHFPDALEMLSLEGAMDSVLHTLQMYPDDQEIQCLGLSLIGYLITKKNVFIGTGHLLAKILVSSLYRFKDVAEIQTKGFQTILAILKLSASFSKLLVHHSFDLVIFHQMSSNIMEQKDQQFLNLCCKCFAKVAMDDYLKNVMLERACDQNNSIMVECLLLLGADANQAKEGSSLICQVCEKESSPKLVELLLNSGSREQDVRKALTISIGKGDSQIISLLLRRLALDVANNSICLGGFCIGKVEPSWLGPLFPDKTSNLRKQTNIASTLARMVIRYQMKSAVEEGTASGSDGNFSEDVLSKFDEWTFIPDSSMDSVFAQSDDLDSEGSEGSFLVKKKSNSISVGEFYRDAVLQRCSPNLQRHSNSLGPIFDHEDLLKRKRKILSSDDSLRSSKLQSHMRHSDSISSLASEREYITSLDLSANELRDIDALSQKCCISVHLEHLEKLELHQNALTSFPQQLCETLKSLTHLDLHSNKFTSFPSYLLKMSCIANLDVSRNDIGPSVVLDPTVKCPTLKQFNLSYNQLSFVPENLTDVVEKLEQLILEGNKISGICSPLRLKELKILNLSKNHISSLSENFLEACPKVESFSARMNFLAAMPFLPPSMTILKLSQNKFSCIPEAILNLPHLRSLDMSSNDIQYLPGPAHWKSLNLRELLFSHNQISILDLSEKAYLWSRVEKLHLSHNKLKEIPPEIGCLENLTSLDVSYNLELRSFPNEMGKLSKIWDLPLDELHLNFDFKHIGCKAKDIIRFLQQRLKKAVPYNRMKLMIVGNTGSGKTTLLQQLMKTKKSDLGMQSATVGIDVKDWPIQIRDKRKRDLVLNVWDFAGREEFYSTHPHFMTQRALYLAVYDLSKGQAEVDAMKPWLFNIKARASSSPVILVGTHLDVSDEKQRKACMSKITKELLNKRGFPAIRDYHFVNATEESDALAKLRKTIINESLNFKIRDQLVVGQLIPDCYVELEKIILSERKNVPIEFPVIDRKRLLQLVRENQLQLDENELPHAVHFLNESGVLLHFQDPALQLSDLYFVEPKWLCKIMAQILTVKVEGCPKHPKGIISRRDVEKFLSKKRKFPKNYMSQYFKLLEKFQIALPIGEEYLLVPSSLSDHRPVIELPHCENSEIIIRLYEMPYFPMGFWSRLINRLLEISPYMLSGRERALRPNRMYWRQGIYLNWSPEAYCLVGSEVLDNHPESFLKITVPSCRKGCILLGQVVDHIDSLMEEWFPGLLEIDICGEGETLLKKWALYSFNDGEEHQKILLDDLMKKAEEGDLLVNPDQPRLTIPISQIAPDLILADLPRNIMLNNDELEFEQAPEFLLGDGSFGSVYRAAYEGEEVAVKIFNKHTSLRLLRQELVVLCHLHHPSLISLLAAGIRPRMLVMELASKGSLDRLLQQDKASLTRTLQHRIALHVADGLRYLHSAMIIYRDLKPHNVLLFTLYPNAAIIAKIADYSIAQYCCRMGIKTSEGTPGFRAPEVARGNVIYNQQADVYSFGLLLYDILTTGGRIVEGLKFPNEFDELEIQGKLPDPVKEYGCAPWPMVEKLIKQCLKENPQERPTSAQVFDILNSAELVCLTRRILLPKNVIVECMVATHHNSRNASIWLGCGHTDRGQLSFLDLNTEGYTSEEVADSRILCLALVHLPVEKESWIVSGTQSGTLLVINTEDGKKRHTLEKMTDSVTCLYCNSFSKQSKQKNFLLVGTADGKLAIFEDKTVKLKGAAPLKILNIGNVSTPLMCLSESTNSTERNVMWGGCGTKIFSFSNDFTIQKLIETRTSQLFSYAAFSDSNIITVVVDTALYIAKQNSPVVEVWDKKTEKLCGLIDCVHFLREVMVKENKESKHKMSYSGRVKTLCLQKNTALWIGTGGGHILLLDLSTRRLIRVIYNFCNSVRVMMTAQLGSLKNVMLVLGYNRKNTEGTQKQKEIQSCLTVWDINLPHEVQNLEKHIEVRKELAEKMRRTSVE

This test addresses T1, LRRK2 G2019S mutant kinase (Homo sapiens, UniProt Q5S007, G2019S).
T1 construct: GST; purchased Invitrogen PV4882
The test is described as follows: LRRK2 G2019S LanthaScreen TR-FRET kinase assay. As to conditions: LRRK2 G2019S GST-tagged protein, 100 μM ATP, LRRKtide substrate; read-out: IC50 (potency). It is filed as biochemical. Here is the method: Activity of compounds against LRRK2 G2019S mutant kinase function was tested in a LANTHAScreen® assay as follows: Compounds were diluted in 100% DMSO to the desired test concentrations in white, low-volume 384-well plates (PerkinElmer ProxiPlate® PN: 6008280). TR-FRET kinase reactions (10 μL) were performed with 75 nM Fluorescein-ERM (LRRKtide, Invitrogen, PN:PV4901) substrate in a final assay buffer containing 100 μM ATP and 2 mM DTT diluted in commercially available Kinase Buffer S (Invitrogen PN: PV5213). The final solvent concentration in the assay was 1% DMSO. Reactions were initiated with the addition of 10 ng/well of LRRK2 02019S, GST-tagged protein (Invitrogen PN: PV4882). After incubation of the foil sealed reaction plates at room temperature with low speed mixing for 1 hour, the kinase reaction was stopped and the amount of substrate phosphorylation was detected by addition of 10 μL of 10 mM EDTA and 2 nM Tb-anti-pERM (pLRRKtide antibody, Invitrogen, PN: PV4898) antibody in TR-FRET dilution buffer (Invitrogen PN: PV3574). After a 30 minute incubation at room temperature with low speed mixing, foil seals were removed and measurements were obtained on a PerkinElmer EnVision with excitation 340 nm, emission 520 nm (channel 1): 495 nm (channel 2) settings. Generation of raw data and workup of data to derive the IC50 (potency) and maximal inhibition at concentrations tested were performed using Merck's Assay Data Analyzer (ADA) software.
As to `CCC(C)Sc1sc(-c2cc[nH]n2)c2c1C(=O)CC(C)(C)C2` (stereo not shown) [Example 30, 3-(Butan-2-ylsulfanyl)-6,6-dimethyl-1-(1H-pyrazol-3-yl)-6,7-dihydro-2-benzothiophen-4(5H)-one], the IC50 amounted to 180 nM.

For the molecule `CCC(C)NC(=O)n1ccc(-c2sc(SC3CCCC3)c3c2CC(C)(C)CC3=O)n1` (stereo not shown) [Example 71, N-(Butan-2-yl)-3-[3-(cyclopentylsulfanyl)-6,6-dimethyl-4-oxo-4,5,6,7-tetrahydro-2-benzothiophen-1-yl]-1H-pyrazole-1-carboxamide], the IC50 is 1700 nM.

Regarding `CCc1cc(-c2sc(SC)c3c2CC(C)(C)CC3=O)n[nH]1` [Example 90, 1-(5-Ethyl-1H-pyrazol-3-yl)-6,6-dimethyl-3-(methylsulfanyl)-6,7-dihydro-2-benzothiophen-4(5H)-one], the IC50 was found to be 450 nM.

As to `CSc1sc(-c2ccn(C(=O)OC(C)(C)C)n2)c2c1C(=O)CCC2` [Example 85, tert-Butyl 3-[3-(methylsulfanyl)-4-oxo-4,5,6,7-tetrahydro-2-benzothiophen-1-yl]-1H-pyrazole-1-carboxylate], the IC50 came to 1100 nM.

Consider `CC1(C)CC(=O)c2c(SC3CCCC3)sc(-c3ccn(C(=O)c4ccc(C#N)cc4)n3)c2C1` [Example 77, 4-({3-[3-(Cyclopentylsulfanyl)-6,6-dimethyl-4-oxo-4,5,6,7-tetrahydro-2-benzothiophen-1-yl]-1H-pyrazol-1-yl}carbonyl)benzonitrile], for which the IC50 is 260 nM.

Turning to `CC1(C)CC(=O)c2c(SC3CCCC3)sc(-c3ccn(C(=O)Nc4ccc(C#N)cc4)n3)c2C1` [Example 64, N-(4-Cyanophenyl)-3-[3-(cyclopentylsulfanyl)-6,6-dimethyl-4-oxo-4,5,6,7-tetrahydro-2-benzothiophen-1-yl]-1H-pyrazole-1-carboxamide], the IC50 came to 85 nM.

On to `CC1(C)CC(=O)c2c(SCCCCCCN=[N+]=[N-])sc(-c3cc[nH]n3)c2C1` [Example 20, 3-[(6-Azidohexyl)sulfanyl]-6,6-dimethyl-1-(1H-pyrazol-3-yl)-6,7-dihydro-2-benzothiophen-4(5H)-one], for which the IC50 came to 490 nM.

As to `CC1(C)CC(=O)c2c(OC3CCC3)sc(-c3cc[nH]n3)c2C1` [Example 53, 3-(Cyclobutylexy)-6,6-dimethyl-1-(1H-pyrazol-3-yl)-6,7-dihydro-2-benzothiophen-4(5H)-one], the IC50 came out at 430 nM.

`CC1(C)CC(=O)c2c(SC3CCCC3)sc(-c3ccn(C(=O)NC(C)(C)C)n3)c2C1` [Example 70, N-tert-Butyl-3-[3-(cyclopentylsulfanyl)-6,6-dimethyl-4-oxo-4,5,6,7-tetrahydro-2-benzothiophen-1-yl]-1H-pyrazole-1-carboxamide]: the IC50 turned out to be 1300 nM.

As to `CC1(C)CC(=O)c2c(SC3CCCC3)sc(-c3ccn(C(=O)Nc4cccc(C#N)c4)n3)c2C1` [Example 68, N-(3-Cyanophenyl)-3-[3-(cyclopentylsulfanyl)-6,6-dimethyl-4-oxo-4,5,6,7-tetrahydro-2-benzothiophen-1-yl]-1H-pyrazole-1-carboxamide], the concentration for half-maximal inhibition (IC50) was 130 nM.

Turning to `CC1(C)CC(=O)c2c(SCCCN=[N+]=[N-])sc(-c3cc[nH]n3)c2C1` [Example 21, 3-[(3-Azidopropyl)sulfanyl]-6,6-dimethyl-1-(1H-pyrazol-3-yl)-6,7-dihydro-2-benzothiophen-4(5H)-one], the IC50 came to 200 nM.

For `CC1(C)CC(=O)c2c(SC3CCCC3)sc(-c3ccn(C(=O)C4CCCCC4)n3)c2C1` [Example 83, 1-[1-(Cyclohexylcarbonyl)-1H-pyrazol-3-yl]-3-(cyclopentylsulfanyl)-6,6-dimethyl-6,7-dihydro-2-benzothiophen-4(5H)-one], the IC50 amounted to 4000 nM.

As for `COCCSc1sc(-c2cc[nH]n2)c2c1C(=O)CC(C)(C)C2` [Example 12, 3-[(2-Methoxyethyl)sulfanyl]-6,6-dimethyl-1-(1H-pyrrazol-3-yl)-6,7-dihydro-2-henzothiophen-4(5H)-one], the IC50 turned out to be 290 nM.

Regarding `CSc1sc(-c2cc[nH]n2)c2c1C(=O)C(C)CC2` (stereo not shown) [Example 91, 5-Methyl-3-(methylsulfanyl)-1-(1H-pyrazol-3-yl)-6,7-dihydro-2-benzothiophen-4(5H)-one], the concentration for half-maximal inhibition (IC50) worked out at 150 nM.

`CC1(C)CC(=O)c2c(SCC3CC3)sc(-c3cc[nH]n3)c2C1` [Example 22, 3-[(Cyclopropylmethyl)sulfanyl]-6,6-dimethyl-1-(1H-pyrazol-3-yl)-6,7-dihydro-2-benzothiophen-4(5H)-one]: the IC50 was 130 nM.

As to `CN1CCN(c2sc(-c3cc[nH]n3)c3c2C(=O)CC(C)(C)C3)CC1` [Example 43, 6,6-Dimethyl-3-(4-methylpiperazin-1-yl)-1-(1H-pyrazol-3-yl)-6,7-dihydro-2-benzothiophen-4(5H)-one], the IC50 was found to be 4000 nM.

For the molecule `CC(C)Nc1sc(-c2cc[nH]n2)c2c1C(=O)CC(C)(C)C2` [Example 37, 6,6-Dimethyl-3-(propan-2-ylamino)-1-(1H-pyrazol-3-yl)-6,7-dihydro-2-benzothiophen-4(5H)-one], the IC50 is 180 nM.

Consider `CSc1sc(-c2cc[nH]n2)c2c1C(=O)CC(C)(C)C2` [Example 5, 6,6-Dimethyl-3-(methylsulfanyl)-1-(1H-pyrazol-3-yl)-6,7-dihydro-2-benzothiophen-4(5H)-one], for which the IC50 amounted to 230 nM.

On to `COc1ccc(C(=O)n2ccc(-c3sc(SC4CCCC4)c4c3CC(C)(C)CC4=O)n2)cc1` [Example 82, 3-(Cyclopentylsulfanyl)-1-{1-[(4-methoxyphenyl)carbonyl]-1H-pyrazol-3-yl}-6,6-dimethyl-6,7-dihydro-2-benzothiophen-4(5H)-one], for which the half-inhibitory concentration (IC50) was 3400 nM.

Regarding `CC1(C)CC(=O)c2c(NCCN3CCOCC3)sc(-c3cc[nH]n3)c2C1` [Example 45, 6,6-Dimethyl-3-{[2-(morpholin-4-yl)ethyl]amino}-1-(1H-pyrazol-3-yl)-6,7-dihydro-2-benzothiophen-4(5H)-one], the IC50 was 250 nM.

On to `CNc1sc(-c2cc[nH]n2)c2c1C(=O)CC(C)(C)C2` [Example 36, 6,6-Dimethyl-3-(methylamino)-1-(1H-pyrazol-3-yl)-6,7-dihydro-2-benzothiophen-4(5H)-one], for which the IC50 turned out to be 760 nM.

Regarding `CC1(C)CC(=O)c2c(NC3CCCC3)sc(-c3ccn(C(=O)Nc4ccc(Cl)cc4)n3)c2C1` [Example 73, N-(4-Chlorophenyl)-3-[3-(cyclopentylamino)-6,6-dimethyl-4-oxo-4,5,6,7-tetrahydro-2-benzothiophen-1-yl]-1H-pyrazole-1-carboxamide], the IC50 is 280 nM.

On to `CC1(C)CC(=O)c2c(NC3CCCCC3)sc(-c3cc[nH]n3)c2C1` [Example 39, 3-(Cyclohexylaminn)-6,6-dimethyl-1-(1H-pyrazol-3-yl)-6,7-dihydro-2-benzothiophen-4(5H)-one], for which the IC50 came to 240 nM.

On to `CC1(C)CC(=O)c2c(SC3CCCC3)sc(-c3ccn(C(=O)Nc4ccc5ccccc5c4)n3)c2C1` [Example 63, 3-[3-(Cyclopentylsulfanyl)-6,6-dimethyl-4-oxo-4,5,6,7-tetrahydro-2-benzothiophen-1-yl]-N-(naphthalen-2-yl)-1H-pyrazole-1-carboxamide], for which the IC50 was found to be 110 nM.

Regarding `CC(C)Sc1sc(-c2cc[nH]n2)c2c1C(=O)CC(C)(C)C2` [Example 9, 6,6-Dimethyl-3-(propan-2-ylsulfanyl)-1-(1H-pyrazol-3-yl)-6,7-dihydro-2-benzothiophen-4(5H)-one], the IC50 turned out to be 140 nM.

Turning to `CCCCSc1sc(-c2cc[nH]n2)c2c1C(=O)CC(C)(C)C2` [Example 27, 3-(Butylsulfanyl)-6,6-dimethyl-1-(1H-pyrazol-3-yl)-6,7-dihydro-2-benzothiophen-4(5H)-one], the IC50 worked out at 140 nM.

As to `CCSc1sc(-c2cc[nH]n2)c2c1C(=O)CC(C)(C)C2` [Example 8, 3-(Ethylsulfanyl)-6,6-dimethyl-1-(1H-pyrazol-3-yl)-6,7-dihydro-2-benzothiophen-4(5H)-one], the IC50 was determined as 180 nM.

`CCCC1CCc2c(-c3cc[nH]n3)sc(SC)c2C1=O` (stereo not shown) [Example 92, 3-(Methylsulfanyl)-5-propyl-1-(1H-pyrazol-3-yl)-6,7-dihydro-2-benzothiophen-4(5H)-one]: the concentration for half-maximal inhibition (IC50) is 310 nM.

As for `CC(C)Oc1sc(-c2cc[nH]n2)c2c1C(=O)CC(C)(C)C2` [Example 54, 6,6-Dimethyl-3-(propan-2-yloxy)-1-(1H-pyrazol-3-yl)-6,7-dihydro-2-benzothiophen-4(5H)-one], the IC50 stood at 790 nM.

In the case of `CC1(C)CC(=O)c2c(SC3CCCC3)sc(-c3ccn(C(=O)c4ccc(Cl)nc4)n3)c2C1` [Example 80, 1-{1-[(6-Chloropyridin-3-yl)carbonyl]-1H-pyrazol-3-yl}-3-(cyclopentylsulfanyl)-6,6-dimethyl-6,7-dihydro-2-benzothiophen-4(5H)-one], the IC50 was 570 nM.

With `CC1(C)CC(=O)c2c(SCCCO)sc(-c3cc[nH]n3)c2C1` [Example 11, 3-[(3-Hydroxypropyl)sulfanyl]-6,6-dimethyl-1-(1H-pyrazol-3-yl)-6,7-dihydro-2-benzothiophen-4(5H)-one], the IC50 was 200 nM.
